Reference: the supplement of paper PMC13380429

Key:
Conditions in all cases: 72 h
[1] = system: U2OS; assay: cell viability relative to DMSO; higher = less toxic
[2] = system: Caco-2; assay: as above
[3] = system: HepG2; assay: as above
[4] = system: Calu-3; assay: as above
[5] = system: Vero E6; assay: as above
[6] = system: U2OS; assay: drug sensitivity score (DSS) for viability; higher = more toxic; extreme values may be limits of the assay
[7] = system: Caco-2; assay: as above
[8] = system: HepG2; assay: as above
[9] = system: Calu-3; assay: as above
[10] = system: Vero E6; assay: as above
[11] = system: U2OS; assay: relative viability EC50 (midpoint between 100% and the lowest measured viability); higher = less toxic
[12] = system: Caco-2; assay: as above
[13] = system: HepG2; assay: as above
[14] = system: Calu-3; assay: as above
[15] = system: Vero E6; assay: as above

CC(=O)c1ccc(S(=O)(=O)NC(=O)NC2CCCCC2)cc1 [acetohexamide]
cell viability ([1]; 1 nM): 95.1%
cell viability ([1]; 10 nM): 98%
cell viability ([1]; 100 nM): 96.6%
cell viability ([1]; 1000 nM): 96.3%
cell viability ([1]; 10000 nM): 96.9%
cell viability ([2]; 1 nM): 97.1%
cell viability ([2]; 10 nM): 85.8%
cell viability ([2]; 100 nM): 90.7%
cell viability ([2]; 1000 nM): 75.4%
cell viability ([2]; 10000 nM): 83.1%
cell viability ([3]; 1 nM): 99.5%
cell viability ([3]; 10 nM): 103%
cell viability ([3]; 100 nM): 106%
cell viability ([3]; 1000 nM): 113%
cell viability ([3]; 10000 nM): 106%
cell viability ([4]; 1 nM): 91.8%
cell viability ([4]; 10 nM): 112%
cell viability ([4]; 100 nM): 90.2%
cell viability ([4]; 1000 nM): 107%
cell viability ([4]; 10000 nM): 104%
cell viability ([5]; 1 nM): 92.7%
cell viability ([5]; 10 nM): 98.2%
cell viability ([5]; 100 nM): 97.1%
cell viability ([5]; 1000 nM): 98.9%
cell viability ([5]; 10000 nM): 110%
drug sensitivity score [6]: 0
drug sensitivity score [7]: 3.7
drug sensitivity score [8]: 0
drug sensitivity score [9]: 0
drug sensitivity score [10]: 0
relative viability EC50 [11]: > 10 µM
relative viability EC50 [12]: > 10 µM
relative viability EC50 [13]: > 10 µM
relative viability EC50 [14]: > 10 µM
relative viability EC50 [15]: > 10 µM

COc1ccccc1NC(=O)OCC1CCN(C(=O)OC(C)(C)C)CC1
cell viability ([1]; 1 nM): 96.8%
cell viability ([1]; 10 nM): 99%
cell viability ([1]; 100 nM): 94.4%
cell viability ([1]; 1000 nM): 99.1%
cell viability ([1]; 10000 nM): 94.7%
cell viability ([2]; 1 nM): 89.2%
cell viability ([2]; 10 nM): 96.2%
cell viability ([2]; 100 nM): 101%
cell viability ([2]; 1000 nM): 97.9%
cell viability ([2]; 10000 nM): 97.9%
cell viability ([3]; 1 nM): 111%
cell viability ([3]; 10 nM): 108%
cell viability ([3]; 100 nM): 100%
cell viability ([3]; 1000 nM): 94.5%
cell viability ([3]; 10000 nM): 104%
cell viability ([4]; 1 nM): 108%
cell viability ([4]; 10 nM): 102%
cell viability ([4]; 100 nM): 94.5%
cell viability ([4]; 1000 nM): 109%
cell viability ([4]; 10000 nM): 108%
cell viability ([5]; 1 nM): 97.4%
cell viability ([5]; 10 nM): 102%
cell viability ([5]; 100 nM): 99.8%
cell viability ([5]; 1000 nM): 99.2%
cell viability ([5]; 10000 nM): 95.2%
drug sensitivity score [6]: 0
drug sensitivity score [7]: 0
drug sensitivity score [8]: 0
drug sensitivity score [9]: 0
drug sensitivity score [10]: 0
relative viability EC50 [11]: > 10 µM
relative viability EC50 [12]: > 10 µM
relative viability EC50 [13]: > 10 µM
relative viability EC50 [14]: > 10 µM
relative viability EC50 [15]: > 10 µM

CN1Cc2c(C(=O)OC(C)(C)C)ncn2-c2ccsc2C1=O [Ro-19-4605]
cell viability ([1]; 1 nM): 94.5%
cell viability ([1]; 10 nM): 92.8%
cell viability ([1]; 100 nM): 95.4%
cell viability ([1]; 1000 nM): 102%
cell viability ([1]; 10000 nM): 97.2%
cell viability ([2]; 1 nM): 98.8%
cell viability ([2]; 10 nM): 102%
cell viability ([2]; 100 nM): 101%
cell viability ([2]; 1000 nM): 100%
cell viability ([2]; 10000 nM): 103%
cell viability ([3]; 1 nM): 105%
cell viability ([3]; 10 nM): 96.9%
cell viability ([3]; 100 nM): 115%
cell viability ([3]; 1000 nM): 96.6%
cell viability ([3]; 10000 nM): 108%
cell viability ([4]; 1 nM): 96.9%
cell viability ([4]; 10 nM): 98%
cell viability ([4]; 100 nM): 89%
cell viability ([4]; 1000 nM): 103%
cell viability ([4]; 10000 nM): 99.3%
cell viability ([5]; 1 nM): 101%
cell viability ([5]; 10 nM): 96.4%
cell viability ([5]; 100 nM): 103%
cell viability ([5]; 1000 nM): 96.8%
cell viability ([5]; 10000 nM): 103%
drug sensitivity score [6]: 0
drug sensitivity score [7]: 0
drug sensitivity score [8]: 0
drug sensitivity score [9]: 0
drug sensitivity score [10]: 0
relative viability EC50 [11]: > 10 µM
relative viability EC50 [12]: > 10 µM
relative viability EC50 [13]: > 10 µM
relative viability EC50 [14]: > 10 µM
relative viability EC50 [15]: > 10 µM

NC(=O)CN1CC(O)CC1=O (stereo not given) [oxiracetam]
cell viability ([1]; 1 nM): 107%
cell viability ([1]; 10 nM): 103%
cell viability ([1]; 100 nM): 97.5%
cell viability ([1]; 1000 nM): 100%
cell viability ([1]; 10000 nM): 98.9%
cell viability ([2]; 1 nM): 98.9%
cell viability ([2]; 10 nM): 111%
cell viability ([2]; 100 nM): 94.8%
cell viability ([2]; 1000 nM): 99.1%
cell viability ([2]; 10000 nM): 101%
cell viability ([3]; 1 nM): 92.6%
cell viability ([3]; 10 nM): 101%
cell viability ([3]; 100 nM): 95.8%
cell viability ([3]; 1000 nM): 104%
cell viability ([3]; 10000 nM): 94.8%
cell viability ([4]; 1 nM): 101%
cell viability ([4]; 10 nM): 98%
cell viability ([4]; 100 nM): 102%
cell viability ([4]; 1000 nM): 93.9%
cell viability ([4]; 10000 nM): 102%
cell viability ([5]; 1 nM): 98.1%
cell viability ([5]; 10 nM): 101%
cell viability ([5]; 100 nM): 104%
cell viability ([5]; 1000 nM): 99.2%
cell viability ([5]; 10000 nM): 97.1%
drug sensitivity score [6]: 0
drug sensitivity score [7]: 0
drug sensitivity score [8]: 0
drug sensitivity score [9]: 0
drug sensitivity score [10]: 0
relative viability EC50 [11]: > 10 µM
relative viability EC50 [12]: > 10 µM
relative viability EC50 [13]: > 10 µM
relative viability EC50 [14]: > 10 µM
relative viability EC50 [15]: > 10 µM
